Data on one compound can be found in article PMC6155437 (Molecules : A Journal of Synthetic Chemistry and Natural …, 2017).

The target in one series is T1, CYP2C8 (Homo sapiens, UniProt P10632).
T1 construct: tissue Corning Life Sciences; host or cells: pooled human liver microsomes (150 donors)
T1 sequence (P10632 1-490): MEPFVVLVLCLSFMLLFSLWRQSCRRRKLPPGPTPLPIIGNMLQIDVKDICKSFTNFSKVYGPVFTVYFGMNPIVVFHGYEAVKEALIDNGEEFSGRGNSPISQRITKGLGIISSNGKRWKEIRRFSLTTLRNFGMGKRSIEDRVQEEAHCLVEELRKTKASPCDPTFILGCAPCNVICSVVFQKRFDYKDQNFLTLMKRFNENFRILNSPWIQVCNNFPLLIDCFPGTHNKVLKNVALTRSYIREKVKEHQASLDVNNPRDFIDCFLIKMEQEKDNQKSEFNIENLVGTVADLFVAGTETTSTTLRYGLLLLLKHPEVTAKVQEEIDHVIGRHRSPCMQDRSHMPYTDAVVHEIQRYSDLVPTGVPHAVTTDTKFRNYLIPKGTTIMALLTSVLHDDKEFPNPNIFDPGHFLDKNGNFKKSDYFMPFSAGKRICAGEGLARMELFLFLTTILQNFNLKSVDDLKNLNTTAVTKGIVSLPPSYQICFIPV
Description: CYP2C8 amodiaquine N-deethylase inhibition and mechanism-based inactivation in human liver microsomes. The note with it: for IC50: Amodiaquine N-deethylase. The class given is in vitro ADME. On the procedure: After a 3-min pre-incubation at 37 °C, the reactions were initiated by addition of NADPH and incubation proceeded for 15 min at 37 °C in a shaking water bath. […] The incubation mixtures were centrifuged (13,000× g, 4 min, 4 °C). All assays were performed in triplicate and mean values were used in calculations.
Each reaction was initiated by adding the seven-CYP probe substrate cocktail.
The second reaction was terminated after incubation for 10 min by adding 100-µL amounts of ice-cold methanol containing d9-1′-hydroxybufuralol. The incubation mixtures were centrifuged (13,000× g, 4 min, 4 °C), and then 50 µL of each supernatant was diluted with 50 µL of water. Aliquots (5 µL) of the diluted supernatants were analyzed by LC-MS/MS.
The metabolites formed from CYP substrates were quantified simultaneously by a LC-MS/MS method described previously. The ESI source settings in positive-ion mode for metabolite ionization were: capillary voltage, 4200 V; vaporizer temperature, 350 °C; capillary temperature, 330 °C; sheath gas pressure, 35 psi; and auxiliary gas pressure, 15 psi. Quantification was performed by selected reaction monitoring (SRM) of the [M + H]^+ ion and the related product ion for each metabolite: acetaminophen, 152.1 > 110.3; N-desethylamodiaquine, 328.1 > 283.0; 7-hydroxycoumarin, 163.0 > 107.2; 4-hydroxybupropion, 256.1 > 238.0; 4′-hydroxydiclofenac, 312.0 > 231.1; 4′-hydroxy-mephenytoin; 235.1 > 150.1; 1′-hydroxybufuralol, 278.1 > 186.1; 1′-hydroxymidazolam, 341.9 > 324.0; ^13C2,^15N-acetaminophen 155.1 > 111.2; and d9-1′-hydroxybufuralol, 287.2 > 187.0. Analytical data were processed using Xcalibur software (version 2.1, Thermo Scientific).
(§1) The apparent kinetic parameters for inhibitory potential (Ki and kinact values) and inhibition mode were estimated from the fitted curves using the Enzyme Kinetics program (ver. 1.1; Systat Software Inc., San Jose, CA, USA).
(In general: Liver microsomes are a subcellular fraction often used to study metabolism.)

The next series addresses T2, UGT1A1 (Homo sapiens, UniProt P22309).
T2 construct: pooled human liver microsomes (0.2 mg/mL), 5 mM UDPGA; tissue Corning Life Sciences; host or cells: pooled human liver microsomes (150 donors)
T2 sequence (P22309 26-533): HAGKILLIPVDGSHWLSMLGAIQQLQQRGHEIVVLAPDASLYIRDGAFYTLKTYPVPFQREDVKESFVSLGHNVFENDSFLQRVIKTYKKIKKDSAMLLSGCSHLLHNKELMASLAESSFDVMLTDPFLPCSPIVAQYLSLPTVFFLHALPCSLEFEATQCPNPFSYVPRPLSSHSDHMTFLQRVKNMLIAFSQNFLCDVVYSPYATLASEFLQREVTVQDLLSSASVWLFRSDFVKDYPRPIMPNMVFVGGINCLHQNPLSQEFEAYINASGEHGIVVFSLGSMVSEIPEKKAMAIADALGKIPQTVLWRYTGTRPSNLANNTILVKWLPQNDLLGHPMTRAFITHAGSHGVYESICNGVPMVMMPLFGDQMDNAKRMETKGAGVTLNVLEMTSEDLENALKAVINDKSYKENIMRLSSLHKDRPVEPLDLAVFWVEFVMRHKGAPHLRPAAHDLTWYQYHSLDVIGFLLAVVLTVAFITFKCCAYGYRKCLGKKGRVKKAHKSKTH
Put plainly: UGT1A1 SN-38 glucuronidation inhibition in ultrapool human liver microsomes. The class given is in vitro ADME. As to conditions: at 50 µM. On the procedure:
After 3 min of pre-incubation at 37 °C, the reactions were initiated by addition of UDPGA; incubation continued for 60 min at 37 °C in a shaking water bath. The reaction was stopped by placing the tubes on ice and adding 50 µL ice-cold acetonitrile containing internal standards (propofol glucuronide for chenodeoxycholic acid 24-acyl-β-glucuronide and mycophenolic acid glucuronide, and meloxicam for SN-38 glucuronide, trifluoperazine glucuronide, N-acetylserotonin β-D-glucuronide, and naloxone 3-β-D-glucuronide). The incubation mixtures were centrifuged (13,000× g, 4 min, 4 °C). All assays were performed in triplicate and average values were used in calculations.
The metabolites formed from the six UGT cocktail substrates were measured simultaneously using the LC-MS/MS method. The ESI source settings in both positive- and negative-ion modes for metabolite ionization were: capillary voltage, 4200 V; vaporizer temperature, 350 °C; capillary temperature, 330 °C; sheath gas pressure, 35 psi; and auxiliary gas pressure, 15 psi. […] Data were processed using Xcalibur software.
as §1

One may read the IC50 as the concentration that gives 50% inhibition. High values mean weaker potency, low ones greater potency. `O=C(c1cccc2ccccc12)c1cn(CCCCCF)c2ccccc12` [AM-2201, 1-(5-fluoropentyl-1H-indol-3-yl)-(naphthalene-1-yl)methanone] displayed a Ki at CYP2C8 of 2.1 µM. For the same compound, the Inhibition Mode result at CYP2C8 (CYP2C8 amodiaquine N-deethylation) is listed as “mechanism-based inhibitor”. For the same compound, the IC50 against CYP2C8 (IC50 (μM) No Preincubation, CYP2C8, human liver microsomes, 2.5 μM amodiaquine) was determined as 53.8 µM; at CYP2C8 (IC50 (μM) With Preincubation, CYP2C8, 30 min preincubation with NADPH) it was 6.9 µM. The “inhibition of UGT1A1-catalyzed SN-38 glucuronidation” value at UGT1A1 is reported as “negligibly inhibited”.
